This note sets out measurements from ChEMBL document CHEMBL5303766, “Data for DCP probe FHT-2344” (2022).

In assay [1] the target is Mitogen-activated protein kinase 1 (Homo sapiens) (UniProt P28482). Briefly: MAPK1 SGC Tm panel (DSF). To be noted: for ΔTm: Compound concentration 10.0 uM.
The target in assay [2] is Beta-2 adrenergic receptor (Homo sapiens) (UniProt P07550). The conditions noted are these: Compound concentration 10.0 uM.
The target of assay [3] is Ephrin type-A receptor 2 (Homo sapiens) (UniProt P29317). Briefly: EPHA2 SGC Tm panel (DSF). To be noted: for ΔTm: Compound concentration 10.0 uM.
Assay [4] deals with Ribosomal protein S6 kinase alpha-1 (Homo sapiens) (UniProt Q15418). As to the kind of experiment: RPS6KA1 SGC Tm panel (DSF). To be noted: for ΔTm: Compound concentration 10.0 uM.
Assay [5] addresses T1, Dual specificity mitogen-activated protein kinase kinase 7 (Homo sapiens) (UniProt O14733).
T1 sequence (whole entry): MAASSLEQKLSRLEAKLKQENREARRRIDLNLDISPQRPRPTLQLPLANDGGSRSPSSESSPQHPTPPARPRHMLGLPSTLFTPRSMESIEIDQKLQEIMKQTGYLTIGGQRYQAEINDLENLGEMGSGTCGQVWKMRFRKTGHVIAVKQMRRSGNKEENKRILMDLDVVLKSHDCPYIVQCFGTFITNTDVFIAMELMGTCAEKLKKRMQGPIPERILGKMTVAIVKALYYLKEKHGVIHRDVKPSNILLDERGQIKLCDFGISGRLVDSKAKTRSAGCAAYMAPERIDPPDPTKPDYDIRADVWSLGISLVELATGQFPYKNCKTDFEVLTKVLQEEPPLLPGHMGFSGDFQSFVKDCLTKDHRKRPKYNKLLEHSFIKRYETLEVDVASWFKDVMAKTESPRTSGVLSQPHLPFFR
As to the kind of experiment: MAP2K7 SGC Tm panel (DSF). The conditions noted are these: for ΔTm: Compound concentration 10.0 uM.

In assay [6] the target is 5-hydroxytryptamine receptor 5A (Homo sapiens) (UniProt P47898). To be noted: Compound concentration 10.0 uM.
Assay [7] concerns the target Muscarinic acetylcholine receptor M5 (Homo sapiens) (UniProt P08912). The conditions noted are these: Compound concentration 10.0 uM.
Assay [8] has as its target Sodium-dependent dopamine transporter (Homo sapiens, UniProt Q01959). As to the kind of experiment: GPCRScan assay: inhibition of DAT. More on the design: radioligand conc. used [nm] 3.6 – 16.0, parental cells stable HEK.
The target in assay [9] is Mitogen-activated protein kinase 14 (Homo sapiens) (UniProt Q16539). As to the kind of experiment: MAPK14 SGC Tm panel (DSF). To be noted: for ΔTm: Compound concentration 10.0 uM.
For assay [10], the target named is T2, Dual specificity mitogen-activated protein kinase kinase 6 (Homo sapiens) (UniProt P52564).
T2 sequence (whole entry): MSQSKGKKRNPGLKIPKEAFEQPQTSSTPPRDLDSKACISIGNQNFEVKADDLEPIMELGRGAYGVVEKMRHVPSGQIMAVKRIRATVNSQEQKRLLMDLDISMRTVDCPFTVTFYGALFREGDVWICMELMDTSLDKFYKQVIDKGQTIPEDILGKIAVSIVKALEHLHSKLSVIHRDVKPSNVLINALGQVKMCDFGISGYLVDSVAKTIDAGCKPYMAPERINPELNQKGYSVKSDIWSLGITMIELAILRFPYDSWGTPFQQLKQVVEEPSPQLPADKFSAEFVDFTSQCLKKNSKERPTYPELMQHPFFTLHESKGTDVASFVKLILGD
As to the kind of experiment: MAP2K6 SGC Tm panel (DSF). The conditions noted are these: for ΔTm: Compound concentration 10.0 uM.

Assay [11] addresses T3, Serine/threonine-protein kinase ULK3 (Homo sapiens) (UniProt Q6PHR2).
T3 sequence (whole entry): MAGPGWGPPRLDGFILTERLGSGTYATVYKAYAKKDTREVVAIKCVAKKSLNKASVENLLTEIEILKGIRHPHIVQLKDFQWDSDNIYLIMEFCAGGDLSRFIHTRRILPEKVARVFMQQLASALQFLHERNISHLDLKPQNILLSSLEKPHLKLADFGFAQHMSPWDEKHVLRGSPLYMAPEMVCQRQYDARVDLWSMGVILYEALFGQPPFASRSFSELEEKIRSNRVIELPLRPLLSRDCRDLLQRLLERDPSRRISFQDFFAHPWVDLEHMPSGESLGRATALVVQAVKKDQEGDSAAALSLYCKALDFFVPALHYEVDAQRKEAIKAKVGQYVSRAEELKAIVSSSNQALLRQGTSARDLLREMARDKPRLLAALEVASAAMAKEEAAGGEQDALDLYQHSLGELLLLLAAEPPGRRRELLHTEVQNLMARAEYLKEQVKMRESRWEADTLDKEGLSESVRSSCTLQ
Briefly: ULK3 SGC Tm panel (DSF). To be noted: for ΔTm: Compound concentration 10.0 uM.

Assay [12] addresses T4, Serine/threonine-protein kinase 17A (Homo sapiens) (UniProt Q9UEE5).
T4 sequence (whole entry): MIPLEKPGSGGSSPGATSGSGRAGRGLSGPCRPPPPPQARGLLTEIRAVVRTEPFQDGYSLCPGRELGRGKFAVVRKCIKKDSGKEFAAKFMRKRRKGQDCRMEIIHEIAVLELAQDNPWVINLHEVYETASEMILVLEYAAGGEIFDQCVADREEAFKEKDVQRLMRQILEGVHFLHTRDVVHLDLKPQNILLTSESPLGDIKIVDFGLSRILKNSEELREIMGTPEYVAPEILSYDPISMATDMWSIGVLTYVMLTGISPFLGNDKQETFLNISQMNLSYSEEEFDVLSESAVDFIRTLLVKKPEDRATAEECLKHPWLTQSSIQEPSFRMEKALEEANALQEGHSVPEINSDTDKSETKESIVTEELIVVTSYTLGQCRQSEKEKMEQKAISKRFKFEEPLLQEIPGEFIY
Briefly: STK17A SGC Tm panel (DSF). The conditions noted are these: for ΔTm: Compound concentration 10.0 uM.

Bounds are passed on as bounds.

Mitogen-activated protein kinase 14 (Homo sapiens), sequence (Q16539 whole entry): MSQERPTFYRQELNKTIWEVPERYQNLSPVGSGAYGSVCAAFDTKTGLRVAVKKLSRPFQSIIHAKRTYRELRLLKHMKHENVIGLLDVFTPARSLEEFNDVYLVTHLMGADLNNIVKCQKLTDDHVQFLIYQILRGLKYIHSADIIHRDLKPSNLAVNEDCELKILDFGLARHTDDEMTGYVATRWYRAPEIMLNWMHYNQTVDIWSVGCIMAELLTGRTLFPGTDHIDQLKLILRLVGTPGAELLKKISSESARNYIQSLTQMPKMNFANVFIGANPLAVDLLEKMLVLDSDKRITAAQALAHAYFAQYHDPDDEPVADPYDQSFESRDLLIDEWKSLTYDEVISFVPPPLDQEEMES
Mitogen-activated protein kinase 1 (Homo sapiens), sequence (P28482 whole entry): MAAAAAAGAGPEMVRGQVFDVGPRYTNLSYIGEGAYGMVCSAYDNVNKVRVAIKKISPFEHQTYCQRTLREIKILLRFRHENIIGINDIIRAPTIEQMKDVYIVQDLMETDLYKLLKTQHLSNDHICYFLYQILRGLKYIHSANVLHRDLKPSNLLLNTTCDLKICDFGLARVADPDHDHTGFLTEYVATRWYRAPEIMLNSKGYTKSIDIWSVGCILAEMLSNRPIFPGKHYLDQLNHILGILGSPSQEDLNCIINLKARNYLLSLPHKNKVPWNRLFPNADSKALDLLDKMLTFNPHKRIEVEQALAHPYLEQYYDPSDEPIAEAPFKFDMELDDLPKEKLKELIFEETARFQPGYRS
Ribosomal protein S6 kinase alpha-1 (Homo sapiens), sequence (Q15418 whole entry): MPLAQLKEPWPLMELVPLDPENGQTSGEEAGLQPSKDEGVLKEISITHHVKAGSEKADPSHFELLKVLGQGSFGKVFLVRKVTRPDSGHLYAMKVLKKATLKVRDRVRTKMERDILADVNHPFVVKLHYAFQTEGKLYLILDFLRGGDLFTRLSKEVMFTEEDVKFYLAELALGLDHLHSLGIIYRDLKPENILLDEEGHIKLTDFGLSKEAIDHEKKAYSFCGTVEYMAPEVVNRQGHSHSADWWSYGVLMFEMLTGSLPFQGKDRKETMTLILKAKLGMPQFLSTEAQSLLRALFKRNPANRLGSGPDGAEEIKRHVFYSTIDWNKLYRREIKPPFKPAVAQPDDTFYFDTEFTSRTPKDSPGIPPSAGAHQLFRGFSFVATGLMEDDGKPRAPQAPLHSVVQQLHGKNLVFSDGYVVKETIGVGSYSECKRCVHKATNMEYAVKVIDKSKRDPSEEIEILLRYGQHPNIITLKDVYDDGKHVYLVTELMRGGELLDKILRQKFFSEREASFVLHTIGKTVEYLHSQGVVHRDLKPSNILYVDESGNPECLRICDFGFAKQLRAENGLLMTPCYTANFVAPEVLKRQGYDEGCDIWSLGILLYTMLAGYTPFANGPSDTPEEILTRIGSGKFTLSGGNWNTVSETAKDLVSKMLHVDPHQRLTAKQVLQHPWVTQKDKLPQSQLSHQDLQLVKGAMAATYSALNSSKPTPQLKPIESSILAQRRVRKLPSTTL
Ephrin type-A receptor 2 (Homo sapiens), sequence (P29317 whole entry): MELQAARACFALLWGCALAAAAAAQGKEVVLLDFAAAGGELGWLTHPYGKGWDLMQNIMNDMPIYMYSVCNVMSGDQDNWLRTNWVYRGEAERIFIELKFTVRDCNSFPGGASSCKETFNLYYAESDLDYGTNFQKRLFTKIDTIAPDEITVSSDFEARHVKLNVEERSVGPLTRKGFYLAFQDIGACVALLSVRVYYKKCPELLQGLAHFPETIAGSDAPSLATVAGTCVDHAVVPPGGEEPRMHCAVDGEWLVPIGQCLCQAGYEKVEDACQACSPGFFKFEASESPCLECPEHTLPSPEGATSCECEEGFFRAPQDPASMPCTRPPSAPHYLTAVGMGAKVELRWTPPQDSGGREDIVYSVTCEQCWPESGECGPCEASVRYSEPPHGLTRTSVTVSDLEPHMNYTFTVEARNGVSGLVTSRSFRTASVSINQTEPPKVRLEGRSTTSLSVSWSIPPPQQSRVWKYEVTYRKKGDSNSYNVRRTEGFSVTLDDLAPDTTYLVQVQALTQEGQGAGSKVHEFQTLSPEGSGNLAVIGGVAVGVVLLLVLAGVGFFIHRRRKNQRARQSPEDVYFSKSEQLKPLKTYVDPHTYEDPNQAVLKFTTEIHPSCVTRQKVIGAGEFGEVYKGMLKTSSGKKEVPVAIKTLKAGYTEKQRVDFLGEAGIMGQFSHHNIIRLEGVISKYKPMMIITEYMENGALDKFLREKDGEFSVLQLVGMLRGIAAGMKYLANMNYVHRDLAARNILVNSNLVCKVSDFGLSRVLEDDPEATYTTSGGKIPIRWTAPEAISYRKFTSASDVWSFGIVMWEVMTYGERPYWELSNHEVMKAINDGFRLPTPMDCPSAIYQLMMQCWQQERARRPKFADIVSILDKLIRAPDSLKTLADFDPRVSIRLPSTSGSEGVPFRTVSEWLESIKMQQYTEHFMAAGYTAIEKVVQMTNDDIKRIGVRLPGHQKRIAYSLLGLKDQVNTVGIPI
Sodium-dependent dopamine transporter, sequence (Q01959 whole entry): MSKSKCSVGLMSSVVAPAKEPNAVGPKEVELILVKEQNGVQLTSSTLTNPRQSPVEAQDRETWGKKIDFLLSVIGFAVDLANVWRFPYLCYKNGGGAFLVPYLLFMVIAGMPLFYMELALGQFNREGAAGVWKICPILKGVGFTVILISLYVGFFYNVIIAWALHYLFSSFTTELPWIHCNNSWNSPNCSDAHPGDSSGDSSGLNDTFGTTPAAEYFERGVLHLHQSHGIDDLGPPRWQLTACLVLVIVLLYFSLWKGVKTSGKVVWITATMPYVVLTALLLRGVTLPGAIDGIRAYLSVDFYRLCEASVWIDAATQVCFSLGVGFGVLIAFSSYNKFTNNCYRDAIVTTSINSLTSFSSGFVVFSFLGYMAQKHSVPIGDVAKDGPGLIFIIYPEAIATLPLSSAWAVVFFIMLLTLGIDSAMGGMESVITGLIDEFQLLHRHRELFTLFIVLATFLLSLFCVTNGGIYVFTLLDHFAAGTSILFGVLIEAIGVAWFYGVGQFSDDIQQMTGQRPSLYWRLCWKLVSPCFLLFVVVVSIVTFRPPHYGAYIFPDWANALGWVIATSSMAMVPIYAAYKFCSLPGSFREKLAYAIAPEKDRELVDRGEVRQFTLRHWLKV
5-hydroxytryptamine receptor 5A (Homo sapiens), sequence (P47898 whole entry): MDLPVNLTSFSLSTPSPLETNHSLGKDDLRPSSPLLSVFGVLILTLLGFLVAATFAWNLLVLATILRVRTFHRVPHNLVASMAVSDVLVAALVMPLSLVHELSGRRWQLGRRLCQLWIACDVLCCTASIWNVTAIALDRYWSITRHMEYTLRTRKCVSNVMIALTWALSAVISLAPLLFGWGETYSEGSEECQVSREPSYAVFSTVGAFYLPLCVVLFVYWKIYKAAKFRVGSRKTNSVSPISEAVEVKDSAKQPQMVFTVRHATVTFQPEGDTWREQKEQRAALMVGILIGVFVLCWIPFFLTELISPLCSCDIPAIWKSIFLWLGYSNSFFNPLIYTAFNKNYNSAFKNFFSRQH
Muscarinic acetylcholine receptor M5 (Homo sapiens), sequence (P08912 whole entry): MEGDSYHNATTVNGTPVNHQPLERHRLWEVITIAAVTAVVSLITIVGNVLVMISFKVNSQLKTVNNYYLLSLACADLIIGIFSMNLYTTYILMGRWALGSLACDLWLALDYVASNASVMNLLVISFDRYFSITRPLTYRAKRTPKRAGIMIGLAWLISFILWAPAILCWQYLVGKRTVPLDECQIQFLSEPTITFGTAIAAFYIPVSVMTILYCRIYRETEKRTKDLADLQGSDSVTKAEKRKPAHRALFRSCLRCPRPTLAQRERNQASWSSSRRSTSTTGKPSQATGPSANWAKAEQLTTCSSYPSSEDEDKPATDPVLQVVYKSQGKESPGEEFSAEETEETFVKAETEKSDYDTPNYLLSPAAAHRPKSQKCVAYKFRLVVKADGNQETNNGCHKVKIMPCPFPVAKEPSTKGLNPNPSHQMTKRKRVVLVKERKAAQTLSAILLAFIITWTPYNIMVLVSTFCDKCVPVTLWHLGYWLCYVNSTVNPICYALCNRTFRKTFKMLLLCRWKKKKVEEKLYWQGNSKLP
Beta-2 adrenergic receptor (Homo sapiens), sequence (P07550 whole entry, looked up): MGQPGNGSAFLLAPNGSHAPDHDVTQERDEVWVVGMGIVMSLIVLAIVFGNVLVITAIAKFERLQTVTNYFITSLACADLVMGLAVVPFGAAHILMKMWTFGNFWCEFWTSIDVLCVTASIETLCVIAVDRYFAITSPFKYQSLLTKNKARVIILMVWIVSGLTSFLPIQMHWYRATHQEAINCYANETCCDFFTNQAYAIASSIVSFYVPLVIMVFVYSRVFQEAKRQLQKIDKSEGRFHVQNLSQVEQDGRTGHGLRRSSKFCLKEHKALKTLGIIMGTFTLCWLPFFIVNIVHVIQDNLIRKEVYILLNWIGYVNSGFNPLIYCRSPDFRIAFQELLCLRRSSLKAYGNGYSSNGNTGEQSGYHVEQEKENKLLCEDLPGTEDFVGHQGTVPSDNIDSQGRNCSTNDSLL

Regarding `C[C@H](NC(=O)c1cn(C2(C#N)CC2)cn1)C(=O)Nc1nc(-c2cccc(-c3ccn(C)n3)c2)cs1`, the delta Tm Staurosporine positive control in assay [1] was determined as 1.98; in assay [3] it was 7.67; in assay [4], 3.76; in assay [5] it was 6.68; in [9] it was 1.14; in assay [10], 12.1. In addition, the delta Tm Staurosporine positive control was determined as 18.2 in assay [11] and 12.6 in assay [12]. Further, the ΔTm was 0.442 in assay [1]; 0.2 in assay [3]; 0.223 in assay [4]; 0.97 in assay [5]; -0.0712 in assay [9]; 1.65 in [10]. Besides, the results for the ΔTm in assay [11] and in assay [12] were 0.155 and 1.03, respectively. The results for the inhibition in [2], in assay [6] and in [7] were -5.95%, 13.9% and 4.67%, respectively. Further, the inhibitory constant (Ki) in assay [8] was > 10 µM. Further, in assay [8], the pKi is on record as < 5.
Consider `COC[C@H](NC(=O)c1ccn(S(C)(=O)=O)c1)C(=O)Nc1nc(-c2cccc(-c3ccn(C)n3)c2)cs1`, for which the delta Tm Staurosporine positive control was 1.98 in assay [1]; 7.67 in assay [3]; 3.76 in [4]; 6.68 in assay [5]; 1.14 in assay [9]; 12.1 in assay [10]. Moreover, the delta Tm Staurosporine positive control in assay [11] came out at 18.2; in assay [12] it was 12.6. The ΔTm in [1] is 0.812; in assay [3], 0.202; in assay [4], 0.166; in assay [5], 0.168; in assay [9] it was -0.0969; in assay [10], 1.51. Besides, the ΔTm in assay [11] is 0.301; in [12], 0.566. Moreover, the inhibition is 1.42% in [2], 11.2% in assay [6] and 0.52% in assay [7]. The inhibition constant (Ki) in assay [8] is > 10 µM. In addition, the pKi in assay [8] is recorded as < 5.
